Measured values: patent publication US20260199484A1, “PROTAC DEGRADERS OF MLLT1 AND/OR MLLT3” (DARK BLUE THERAPEUTICS LTD, priority 2024, published 2026)

Target: T1, MLLT1 (Homo sapiens, UniProt Q03111)
T1 sequence (Q03111 1-559): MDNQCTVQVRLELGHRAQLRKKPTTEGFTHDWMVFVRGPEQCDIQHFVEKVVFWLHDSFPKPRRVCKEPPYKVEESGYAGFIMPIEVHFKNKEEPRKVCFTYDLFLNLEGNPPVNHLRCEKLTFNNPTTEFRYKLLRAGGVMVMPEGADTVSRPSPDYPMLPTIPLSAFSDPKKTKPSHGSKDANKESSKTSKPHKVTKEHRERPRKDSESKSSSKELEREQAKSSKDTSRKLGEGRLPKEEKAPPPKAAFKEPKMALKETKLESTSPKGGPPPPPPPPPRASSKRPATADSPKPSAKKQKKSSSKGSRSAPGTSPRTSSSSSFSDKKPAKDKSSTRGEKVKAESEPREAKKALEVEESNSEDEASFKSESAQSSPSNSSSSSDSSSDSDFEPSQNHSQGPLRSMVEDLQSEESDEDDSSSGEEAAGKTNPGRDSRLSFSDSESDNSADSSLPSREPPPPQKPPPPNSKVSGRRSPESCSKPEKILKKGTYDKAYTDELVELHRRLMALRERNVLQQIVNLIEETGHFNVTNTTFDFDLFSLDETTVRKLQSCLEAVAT
Assay: MLLT1 degradation assay in MV4-11 cells (JESS, 24 h)
Assay type: cell-based
Set-up: endogenous in cells; host or cells: MV4-11 (ATCC CRL-9591)
Conditions: vs DMSO control
Method in brief: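 MV4-11 cells treated at 1000, 100 and 10 nM (0.1% DMSO) for 24 h at 37° C; lysates (4 ug protein) run on JESS capillary immunoassay with MLLT1 and GAPDH antibodies. Peak areas give % degradation versus DMSO, binned A (≥75%) to D (<25%).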

Cc1nn(CCCCCCCC#Cc2cccc3c2CN(C2CCC(=O)NC2=O)C3=O)c2cc(C(=O)Nc3cc4[nH]c([C@H]5CCCN5C)cc4cn3)ccc12 (mixture of isomers) [Example 1, 1-(9-(2-(2,6-dioxopiperidin-3-yl)-1-oxoisoindolin-4-yl)non-8-yn-1-yl)-3-methyl-N-(2-((R)-1-methylpyrrolidin-2-yl)-1H-pyrrolo[3,2-c]pyridin-6-yl)-1H-indazole-6-carboxamide]
A (Category A: A≥75% degradation): MLLT1% Degradation @ 0.01 μM (0.01 μM) | MLLT1% Degradation @ 0.1 μM (0.1 μM) | MLLT1% Degradation @ 1 μM (1 μM)
